Patent US20080070249A1, “Novel Activating Agent of Glucose Uptake and a Screening Method Therefor” (ASTELLAS PHARMA INC., priority 2005, published 2008)

Legend:
[1] = system: human PGC-1β promoter; assay: human PGC-1β promoter luciferase reporter (phPGC1β (1.0) Luc) in L6 cells; assay type: cell-based; details: final concentration of 1 μmol/L to 10 μmol/L, 24 hours
Experimental: phPGC1β (1.0) Luc plasmid constructed in Example 9, in accordance with the following procedures. L6 cells were cultivated in a tissue culture dish having a diameter of 10 cm to become 80% confluent. The cells were cotransfected with 5 μg of the phPGC1β (1.0) Luc plasmid and 1 μg of plasmid pCH110 (Pharmacia Biotech) using a regent for transfection (FuGENE™ T6, Roche, Cat. No. 1815091). In this connection, the plasmid pCH110 containing a β-galactosidase gene regulated by a β-actin promoter was used to standardize an efficiency of transfection. After 24 hours from the transfection, the cells were transferred to a 96-well tissue culture dish, and further cultured for 6 hours. Since it was reported that the combination of forskolin and dexamethasone induced an expression of endogenous PGC-1 in hepatocytes [J. Biol. Chem., 278: 30843 (2003)], the cells were treated with 10 μmol/L (final concentration) forskolin and 1 μmol/L dexamethasone [solvent=dimethyl sulfoxide (DMSO)] for 24 hours. After the treatment, the cells were lysed with a solution for cell lysis (LCβ; Toyo Ink, Japan), and a luciferase activity therein was measured using a PicaGene luminescence kit (Toyo Ink, Japan, 309-04321). In this connection, the activity was measured 3 times per group, and each experiment was repeated at least twice, to confirm the reproducibility. […]

[2] = system: differentiated L6 cells; assay: activity of glucose uptake (2-deoxy-D-[U-14C] glucose) in differentiated L6 cells; assay type: cell-based, rat; details: compound at 1 μmol/L to 10 μmol/L for 24 hours, FIG. 5
Experimental: A tissue into which the largest amount of glucose can be incorporated in a living body is muscle. In this example and the following examples, a rat myoblast L6 was used to detect an activity of glucose uptake in vitro. L6 cells (ATCC, CRL-1458) were maintained in a Dulbecco's modified Eagle's medium (GIBCO BRL, USA, 11995-065) supplemented with 10% fetal bovine serum (JRH BIOSCIENCES, Cat. No. 12303-500M), and cultured in a humid atmosphere containing 5% CO2 at 37° C. When the L6 cells were confluent, the medium was changed to a Dulbecco's modified Eagle's medium supplemented with 2% horse serum (GIBCO, Cat. No. 16050), and further cultured for 5 days to perform an induction of differentiation.
The cells overexpressing human PGC-1β or human PGC-1α, prepared in accordance with the procedures described in Example 4, were used to measure an activity of glucose uptake. After 48 hours from the infection, the cells were rinsed with 1 mL of a KRP buffer ([…], 4.7 mmol/L KCl, 1.25 mmol/L CaCl2.2H2O, 1.25 mmol/L MgSO4.7H2O, and 5 mmol/L Na2HPO4.12H2O), and further cultured in 500 μL of KRP for 1 hour. […] Each lysate was mixed with 2 mL of a liquid scintillator (AQUASOL 2, PERKINELMER, Cat. No. 6NE9529), and an amount of radiolabeled compound (radioactivity, CPM) incorporated into the cells was measured using a liquid scintillation counter (PACKARD, B2500TR). […]

Nc1cccc(-c2nc3cc(C(=O)c4ccccc4)ccc3[nH]2)c1 [compound A, 2-(3-aminophenyl)-5-benzoyl-(1H)-benzimidazole]
activating activity of the human PGC-1β promoter (reporter luciferase activity) in comparison with absence of the compound [1]: ≥ 2 times | activity of glucose uptake in muscle cells [2]: significantly activated glucose uptake
